From PubChem BioAssay AID330 (DTP/NCI, 2004)
Several values for one entry are separate records, joined by “and”; a condition that tells them apart may be missing. Equal values may be shown once. Toxic doses and inconclusive results are not listed.

System: P388 leukemia ip, CD2F1 mice, survival T/C
Assay: NCI In Vivo Anticancer Drug Screen. Data for tumor model P388 Leukemia (intraperitoneal) in CD2F1 (CDF1) mice
Conditions: endpoint: median survival time, higher = longer survival
Procedure, shortened: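 Mice carrying the transplanted tumor received test compound or vehicle. Survival was recorded in each group, and the value is the treated-group measurement divided by that of the vehicle-treated control group.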

[1] = dose: 100.0 mg/kg/injection, schedule: Q04DX003 (ip), vehicle: saline with Tween-80
[2] = dose: 50.0 mg/kg/injection, schedule: Q01DX009 (ip), vehicle: saline with Tween-80
[3] = dose: 100.0 mg/kg/injection, schedule: Q01DX009 (ip), vehicle: saline with Tween-80
[4] = dose: 200.0 mg/kg/injection, schedule: Q01DX009 (ip), vehicle: saline with Tween-80
[5] = dose: 60.0 mg/kg/injection, schedule: Q01DX005 (ip), vehicle: saline with Tween-80
[6] = dose: 120.0 mg/kg/injection, schedule: Q01DX005 (ip), vehicle: saline with Tween-80
[7] = dose: 240.0 mg/kg/injection, schedule: Q01DX005 (ip), vehicle: saline with Tween-80
[8] = dose: 100.0 mg/kg/injection, schedule: Q01DX001 (ip), vehicle: saline with Tween-80
[9] = dose: 200.0 mg/kg/injection, schedule: Q01DX001 (ip), vehicle: saline with Tween-80
[10] = dose: 400.0 mg/kg/injection, schedule: Q01DX001 (ip), vehicle: saline with Tween-80
[11] = dose: 25.0 mg/kg/injection, schedule: Q01DX009 (ip), vehicle: saline with Tween-80
[12] = dose: 50.0 mg/kg/injection, schedule: Q01DX009 (ip), vehicle: Klucel (hydroxypropylcellulose) (HPC)

For `CCN(CCP(c1ccccc1)c1ccccc1)CCP(c1ccccc1)c1ccccc1`, the T/C (dose: 0.75 mg/kg/injection, schedule: Q04DX003 (ip), vehicle: saline with Tween-80) was 109 % of control, the T/C (dose: 1.5 mg/kg/injection, schedule: Q04DX003 (ip), vehicle: saline with Tween-80) was 109 % of control and the T/C (dose: 3.0 mg/kg/injection, schedule: Q04DX003 (ip), vehicle: saline with Tween-80) was 118 % of control. For the same compound, the T/C (dose: 3.13 mg/kg/injection, schedule: Q04DX003 (ip), vehicle: saline with Tween-80) was 118 % of control, the T/C (dose: 6.25 mg/kg/injection, schedule: Q04DX003 (ip), vehicle: saline with Tween-80) was 118 % of control and the T/C [1] was 100 % of control and 87 % of control.

For `NC(=O)c1c(Cl)cccc1Cl`, the T/C (dose: 12.5 mg/kg/injection, schedule: Q04DX003 (ip), vehicle: saline) was 101 % of control, the T/C (dose: 25.0 mg/kg/injection, schedule: Q04DX003 (ip), vehicle: saline) was 93 % of control and the T/C (dose: 50.0 mg/kg/injection, schedule: Q04DX003 (ip), vehicle: saline) was 99 % of control. For the same compound, the T/C (dose: 100.0 mg/kg/injection, schedule: Q04DX003 (ip), vehicle: saline) was 101 % of control.

`CC1(C)CC(C)(C)C([Se]C2=C(O)C(=O)C(C)(C)CC2(C)C)=C(O)C1=O` was tested, and the T/C [2] was 100 % of control, the T/C [3] was 101 % of control and the T/C [4] was 94 % of control.

With `Cc1cc(NC(=S)SCc2ccc(F)cc2)c([N+](=O)[O-])cc1C` the T/C (dose: 50.0 mg/kg/injection, schedule: Q01DX009 (ip), vehicle: suspension in saline) was 93 % of control, the T/C (dose: 100.0 mg/kg/injection, schedule: Q01DX009 (ip), vehicle: suspension in saline) was 90 % of control and the T/C (dose: 200.0 mg/kg/injection, schedule: Q01DX009 (ip), vehicle: suspension in saline) was 98 % of control.

In the case of `Cc1ccc(NC(=O)CCC(=O)C(C)C(=O)c2ccccc2)cc1C` (stereo not drawn), the T/C [5] is reported as 105 % of control, the T/C [6] is reported as 105 % of control and the T/C [7] is reported as 109 % of control.

For `C=CCSc1nc(-c2ccc(Cl)cc2)c(C#N)c(=O)[nH]1`, the T/C [8] was 100 % of control, the T/C [9] was 97 % of control and the T/C [10] was 92 % of control.

With `Cn1c(O)c(N=O)c(=O)n(C)c1=O` the T/C [11] was 105 % of control, the T/C [2] was 100 % of control and the T/C [3] was 111 % of control.

`CSCc1cc(Cl)ccc1N` was tested, and the T/C [2] was 97 % of control, the T/C [3] was 97 % of control and the T/C [4] was 97 % of control.

With `CN(C)CCNC(=O)c1noc2c1CSc1ccccc1-2` the T/C [8] was 101 % of control, the T/C [9] was 101 % of control and the T/C [10] was 100 % of control.

For `CCCCCCCCC(C(=O)c1ccccc1)=C(C(F)(F)F)C(F)(F)F`, the T/C (dose: 25.0 mg/kg/injection, schedule: Q04DX003 (ip), vehicle: saline with Tween-80) was 100 % of control, the T/C (dose: 50.0 mg/kg/injection, schedule: Q04DX003 (ip), vehicle: saline with Tween-80) was 95 % of control and the T/C [1] was 104 % of control.

`O=C(Cc1nc2cc(Cl)c(Cl)cc2nc1CC(=O)c1cccnc1)c1cccnc1` was tested, and the T/C [5] was 110 % of control, the T/C [6] was 103 % of control and the T/C [7] was 100 % of control.

For `CNC(=O)OCc1c(COC(=O)NC)c(C)n(-c2ccc3c(c2)OCO3)c1C`, the T/C [12] was 89 % of control.

For `CCOC(=O)CCC(Cl)(Cl)Cl`, the T/C [12] was 100 % of control, the T/C (dose: 100.0 mg/kg/injection, schedule: Q01DX009 (ip), vehicle: Klucel (hydroxypropylcellulose) (HPC)) was 100 % of control and the T/C (dose: 200.0 mg/kg/injection, schedule: Q01DX009 (ip), vehicle: Klucel (hydroxypropylcellulose) (HPC)) was 97 % of control.

In the case of `CCCCCCC(=O)/C=C/c1ccc(OC(=O)c2ccc([N+](=O)[O-])cc2)cc1`, the T/C (dose: 12.5 mg/kg/injection, schedule: Q01DX009 (ip), vehicle: saline) is reported as 105 % of control, the T/C (dose: 25.0 mg/kg/injection, schedule: Q01DX009 (ip), vehicle: saline) is reported as 100 % of control and the T/C (dose: 50.0 mg/kg/injection, schedule: Q01DX009 (ip), vehicle: saline) is reported as 103 % of control and 97 % of control. For the same compound, the T/C (dose: 100.0 mg/kg/injection, schedule: Q01DX009 (ip), vehicle: saline) was 92 % of control and the T/C (dose: 200.0 mg/kg/injection, schedule: Q01DX009 (ip), vehicle: saline) was 92 % of control.

`CC(=O)OC1SCCn2c1nc1ccccc1c2=O` (stereo not drawn) was tested, and the T/C (dose: 50.0 mg/kg/injection, schedule: Q01DX005 (ip), vehicle: saline with Tween-80) was 106 % of control, the T/C (dose: 100.0 mg/kg/injection, schedule: Q01DX005 (ip), vehicle: saline with Tween-80) was 104 % of control and the T/C (dose: 200.0 mg/kg/injection, schedule: Q01DX005 (ip), vehicle: saline with Tween-80) was 99 % of control.

With `O=C(NC(CSSCC(NC(=O)OCc1ccccc1)C(=O)O)C(=O)O)OCc1ccccc1` (stereo not drawn) the T/C (dose: 100.0 mg/kg/injection, schedule: Q04DX003 (ip), vehicle: other) was 100 % of control, the T/C (dose: 200.0 mg/kg/injection, schedule: Q04DX003 (ip), vehicle: other) was 100 % of control and the T/C (dose: 400.0 mg/kg/injection, schedule: Q04DX003 (ip), vehicle: other) was 100 % of control.

With `Cc1c[nH]c2nc(C)n(-c3ccc(F)cc3)c(=N)c12` the T/C (dose: 6.25 mg/kg/injection, schedule: Q01DX005 (ip), vehicle: Klucel (hydroxypropylcellulose) (HPC)) was 100 % of control, the T/C (dose: 12.5 mg/kg/injection, schedule: Q01DX005 (ip), vehicle: Klucel (hydroxypropylcellulose) (HPC)) was 102 % of control and the T/C (dose: 25.0 mg/kg/injection, schedule: Q01DX005 (ip), vehicle: Klucel (hydroxypropylcellulose) (HPC)) was 100 % of control.

For `O=C(Cc1nc2ccc(Cl)cc2[nH]c1=O)c1ccncc1`, the T/C [5] was 94 % of control, the T/C [6] was 100 % of control and the T/C [7] was 119 % of control.

`Cc1cccc(NC(=O)C(=O)C(C#N)c2c(Cl)cccc2Cl)c1C` (stereo not drawn) was tested, and the T/C [5] was 102 % of control, the T/C [6] was 96 % of control and the T/C [7] was 100 % of control.

With `OCC1OC(n2nc(Cl)c3ccccc32)C(O)C1O` (stereo not drawn) the T/C (dose: 6.25 mg/kg/injection, schedule: Q01DX009 (ip), vehicle: saline with Tween-80) was 102 % of control, the T/C (dose: 12.5 mg/kg/injection, schedule: Q01DX009 (ip), vehicle: saline with Tween-80) was 98 % of control and the T/C [11] was 94 % of control. For the same compound, the T/C (dose: 32.0 mg/kg/injection, schedule: Q01DX002 (ip), vehicle: saline with Tween-80) was 104 % of control, the T/C (dose: 64.0 mg/kg/injection, schedule: Q01DX002 (ip), vehicle: saline with Tween-80) was 106 % of control and 107 % of control and the T/C [3] was 91 % of control. The T/C (dose: 128.0 mg/kg/injection, schedule: Q01DX002 (ip), vehicle: saline with Tween-80) was 106 % of control and 107 % of control.

With `O=NN(CCCl)C(=O)Nc1cc(=O)[nH]c(SCc2ccccc2)n1` the T/C (dose: 10.06 mg/kg/injection, schedule: Q04DX002 (ip), vehicle: Klucel (hydroxypropylcellulose) (HPC)) was 151 % of control, the T/C (dose: 40.25 mg/kg/injection, schedule: Q04DX002 (ip), vehicle: Klucel (hydroxypropylcellulose) (HPC)) was 158 % of control and the T/C (dose: 80.5 mg/kg/injection, schedule: Q04DX002 (ip), vehicle: Klucel (hydroxypropylcellulose) (HPC)) was 178 % of control. The T/C (dose: 161.0 mg/kg/injection, schedule: Q04DX002 (ip), vehicle: Klucel (hydroxypropylcellulose) (HPC)) was 150 % of control and 158 % of control and the T/C (dose: 322.0 mg/kg/injection, schedule: Q04DX002 (ip), vehicle: Klucel (hydroxypropylcellulose) (HPC)) was 101 % of control.

For `CC(/C=N\Nc1ccc(Cl)cc1)=N/NC(=S)NCC(C)C`, the T/C [8] was 103 % of control, the T/C [9] was 100 % of control and the T/C [10] was 94 % of control.

In the case of `CC(O)CN(CCN(CC(C)O)CC(C)O)CC(C)O` (stereo not drawn), the T/C (dose: 50.0 mg/kg/injection, schedule: Q01DX005 (ip), vehicle: saline) is reported as 105 % of control, the T/C (dose: 100.0 mg/kg/injection, schedule: Q01DX005 (ip), vehicle: saline) is reported as 103 % of control and the T/C (dose: 200.0 mg/kg/injection, schedule: Q01DX005 (ip), vehicle: saline) is reported as 103 % of control.

In the case of `O=C1OCCOCCOCCOCCOC(=O)c2cccc1c2`, the T/C (dose: 100.0 mg/kg/injection, schedule: Q04DX003 (ip), vehicle: suspension in saline) is reported as 100 % of control, the T/C (dose: 200.0 mg/kg/injection, schedule: Q04DX003 (ip), vehicle: suspension in saline) is reported as 104 % of control and the T/C (dose: 400.0 mg/kg/injection, schedule: Q04DX003 (ip), vehicle: suspension in saline) is reported as 99 % of control.

In the case of `S=c1[nH]c(Cl)c(Cl)cc1Cl`, the T/C [2] is reported as 98 % of control, the T/C [3] is reported as 105 % of control and the T/C [4] is reported as 99 % of control.

In the case of `N#Cc1ccc2c(ccc3ncccc32)n1`, the T/C (dose: 25.0 mg/kg/injection, schedule: Q04DX002 (ip), vehicle: saline with Tween-80) is reported as 100 % of control, the T/C (dose: 50.0 mg/kg/injection, schedule: Q04DX002 (ip), vehicle: saline with Tween-80) is reported as 100 % of control and the T/C (dose: 100.0 mg/kg/injection, schedule: Q04DX002 (ip), vehicle: saline with Tween-80) is reported as 101 % of control.
